Several values for one entry are separate records, joined by “and”; a condition that tells them apart may be missing. Identical values can stand only once.
How the values were obtained:
Type in all cases: cell-based
[1] = target: T1, 318 nonolfactory human GPCRs (Homo sapiens, UniProt O15218); details: GPR182; C21 5 µM
T1 construct: expressed in transfected cells; host or cells: HTLA cells, transient

[2] = target: T2, 318 nonolfactory human GPCRs (Homo sapiens, UniProt Q9NPC1); details: LTB4R2B; C21 5 µM
T2 construct: expressed in transfected cells; host or cells: HTLA cells, transient

[3] = target: T3, 318 nonolfactory human GPCRs (Homo sapiens, UniProt Q9BXA5); details: SUCNR1; C21 5 µM
T3 construct: expressed in transfected cells; host or cells: HTLA cells, transient

[4] = target: T4, 318 nonolfactory human GPCRs (Homo sapiens, UniProt P49238); details: CX3CR1; C21 5 µM
T4 construct: expressed in transfected cells; host or cells: HTLA cells, transient

[5] = target: T5, 318 nonolfactory human GPCRs (Homo sapiens, UniProt P51684); details: CCR6; C21 5 µM
T5 construct: expressed in transfected cells; host or cells: HTLA cells, transient

[6] = target: 318 nonolfactory human GPCRs (Homo sapiens, UniProt P25021); details: HRH2; C21 5 µM
[7] = target: T6, 318 nonolfactory human GPCRs (Homo sapiens, UniProt Q8NDV2); details: GPR26; C21 5 µM
T6 construct: expressed in transfected cells; host or cells: HTLA cells, transient

[8] = target: T7, 318 nonolfactory human GPCRs (Homo sapiens, UniProt Q13639); details: HTR4; C21 5 µM
T7 construct: expressed in transfected cells; host or cells: HTLA cells, transient

[9] = target: T8, 318 nonolfactory human GPCRs (Homo sapiens, UniProt Q9UKP6); details: UTS2R; C21 5 µM
T8 construct: expressed in transfected cells; host or cells: HTLA cells, transient

[10] = target: T9, 318 nonolfactory human GPCRs (Homo sapiens, UniProt O14626); details: GPR171; C21 5 µM
T9 construct: expressed in transfected cells; host or cells: HTLA cells, transient

[11] = target: T10, 318 nonolfactory human GPCRs (Homo sapiens, UniProt Q9BXC1); details: GPR174; C21 5 µM
T10 construct: expressed in transfected cells; host or cells: HTLA cells, transient

[12] = target: T11, 318 nonolfactory human GPCRs (Homo sapiens, UniProt P30968); details: GNRHR; C21 5 µM
T11 construct: expressed in transfected cells; host or cells: HTLA cells, transient

[13] = target: T12, 318 nonolfactory human GPCRs (Homo sapiens, UniProt Q8IWK6); details: GPR125; C21 5 µM
T12 construct: expressed in transfected cells; host or cells: HTLA cells, transient

[14] = target: T13, 318 nonolfactory human GPCRs (Homo sapiens, UniProt P25116); details: F2R; C21 5 µM
T13 construct: expressed in transfected cells; host or cells: HTLA cells, transient

[15] = target: 318 nonolfactory human GPCRs (Homo sapiens, UniProt P28566); details: HTR1E; C21 5 µM
[16] = target: T14, 318 nonolfactory human GPCRs (Homo sapiens, UniProt Q9BZJ7); details: GPR62; C21 5 µM
T14 construct: expressed in transfected cells; host or cells: HTLA cells, transient

[17] = target: 318 nonolfactory human GPCRs (Homo sapiens, UniProt P21728); details: DRD1; C21 5 µM
[18] = target: T15, 318 nonolfactory human GPCRs (Homo sapiens, UniProt P25089); details: FPR3; C21 5 µM
T15 construct: expressed in transfected cells; host or cells: HTLA cells, transient

[19] = target: T16, 318 nonolfactory human GPCRs (Homo sapiens, UniProt P51685); details: CCR8; C21 5 µM
T16 construct: expressed in transfected cells; host or cells: HTLA cells, transient

[20] = target: 318 nonolfactory human GPCRs (Homo sapiens, UniProt P31391); details: SSTR4; C21 5 µM
[21] = target: T17, 318 nonolfactory human GPCRs (Homo sapiens, UniProt O00155); details: GPR25; C21 5 µM
T17 construct: expressed in transfected cells; host or cells: HTLA cells, transient

[22] = target: T18, 318 nonolfactory human GPCRs (Homo sapiens, UniProt Q9NS66); details: GPR173; C21 5 µM
T18 construct: expressed in transfected cells; host or cells: HTLA cells, transient

[23] = target: T19, 318 nonolfactory human GPCRs (Homo sapiens, UniProt P51582); details: P2RY4; C21 5 µM
T19 construct: expressed in transfected cells; host or cells: HTLA cells, transient

[24] = target: T20, 318 nonolfactory human GPCRs (Homo sapiens, UniProt Q8TDT2); details: GPR152; C21 5 µM
T20 construct: expressed in transfected cells; host or cells: HTLA cells, transient

[25] = target: 318 nonolfactory human GPCRs (Homo sapiens, UniProt O95977); details: S1PR4; C21 5 µM
[26] = target: 318 nonolfactory human GPCRs (Homo sapiens, UniProt P30872); details: SSTR1; C21 5 µM
[27] = target: T21, 318 nonolfactory human GPCRs (Homo sapiens, UniProt O14843); details: FFA3; C21 5 µM
T21 construct: expressed in transfected cells; host or cells: HTLA cells, transient

[28] = target: 318 nonolfactory human GPCRs (Homo sapiens, UniProt P30989); details: NTSR1; C21 5 µM
[29] = target: T22, 318 nonolfactory human GPCRs (Homo sapiens, UniProt P41231); details: P2RY2; C21 5 µM
T22 construct: expressed in transfected cells; host or cells: HTLA cells, transient

[30] = target: T23, 318 nonolfactory human GPCRs (Homo sapiens, UniProt P30518); details: AVPR2; C21 5 µM
T23 construct: expressed in transfected cells; host or cells: HTLA cells, transient

[31] = target: T24, 318 nonolfactory human GPCRs (Homo sapiens, UniProt Q13324); details: CRHR2; C21 5 µM
T24 construct: expressed in transfected cells; host or cells: HTLA cells, transient

[32] = target: T25, 318 nonolfactory human GPCRs (Homo sapiens, UniProt Q9NS75); details: CYSLTR2; C21 5 µM
T25 construct: expressed in transfected cells; host or cells: HTLA cells, transient

[33] = target: 318 nonolfactory human GPCRs (Homo sapiens, UniProt Q99500); details: S1PR3; C21 5 µM
[34] = target: T26, 318 nonolfactory human GPCRs (Homo sapiens, UniProt P35367); details: HRH1; C21 5 µM
T26 construct: expressed in transfected cells; host or cells: HTLA cells, transient

T4 sequence (P49238 whole entry): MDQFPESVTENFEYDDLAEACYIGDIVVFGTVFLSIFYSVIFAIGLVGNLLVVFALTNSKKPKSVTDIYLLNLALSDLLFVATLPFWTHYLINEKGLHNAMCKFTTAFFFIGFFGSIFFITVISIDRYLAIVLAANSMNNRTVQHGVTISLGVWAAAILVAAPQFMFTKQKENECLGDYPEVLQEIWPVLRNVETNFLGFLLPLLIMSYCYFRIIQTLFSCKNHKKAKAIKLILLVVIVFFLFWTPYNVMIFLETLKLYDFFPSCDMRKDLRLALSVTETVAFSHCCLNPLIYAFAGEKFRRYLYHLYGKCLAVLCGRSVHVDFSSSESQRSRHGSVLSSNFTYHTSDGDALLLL
Chain of 318 nonolfactory human GPCRs (Homo sapiens, UniProt P28566) (P28566 whole entry): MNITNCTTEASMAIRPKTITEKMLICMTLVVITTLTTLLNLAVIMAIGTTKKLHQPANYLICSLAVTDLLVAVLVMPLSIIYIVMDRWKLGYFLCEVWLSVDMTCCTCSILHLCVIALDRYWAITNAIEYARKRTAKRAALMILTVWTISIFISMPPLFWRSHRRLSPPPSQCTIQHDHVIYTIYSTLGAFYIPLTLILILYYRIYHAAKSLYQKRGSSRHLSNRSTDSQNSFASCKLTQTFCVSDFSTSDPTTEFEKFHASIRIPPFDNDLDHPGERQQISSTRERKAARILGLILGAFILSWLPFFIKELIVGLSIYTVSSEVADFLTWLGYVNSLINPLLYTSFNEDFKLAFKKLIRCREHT
T22 sequence (P41231 whole entry): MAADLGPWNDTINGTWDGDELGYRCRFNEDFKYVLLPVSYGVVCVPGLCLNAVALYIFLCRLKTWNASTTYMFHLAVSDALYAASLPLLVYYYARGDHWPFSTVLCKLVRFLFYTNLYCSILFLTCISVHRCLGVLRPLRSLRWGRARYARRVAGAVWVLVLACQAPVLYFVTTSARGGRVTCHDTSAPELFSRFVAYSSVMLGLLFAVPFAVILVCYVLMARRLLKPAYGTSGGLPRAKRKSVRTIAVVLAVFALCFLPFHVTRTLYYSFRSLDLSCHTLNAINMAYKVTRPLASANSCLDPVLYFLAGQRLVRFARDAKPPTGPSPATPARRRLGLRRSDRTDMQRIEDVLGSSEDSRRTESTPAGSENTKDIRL
Chain of 318 nonolfactory human GPCRs (Homo sapiens, UniProt P30872) (P30872 whole entry): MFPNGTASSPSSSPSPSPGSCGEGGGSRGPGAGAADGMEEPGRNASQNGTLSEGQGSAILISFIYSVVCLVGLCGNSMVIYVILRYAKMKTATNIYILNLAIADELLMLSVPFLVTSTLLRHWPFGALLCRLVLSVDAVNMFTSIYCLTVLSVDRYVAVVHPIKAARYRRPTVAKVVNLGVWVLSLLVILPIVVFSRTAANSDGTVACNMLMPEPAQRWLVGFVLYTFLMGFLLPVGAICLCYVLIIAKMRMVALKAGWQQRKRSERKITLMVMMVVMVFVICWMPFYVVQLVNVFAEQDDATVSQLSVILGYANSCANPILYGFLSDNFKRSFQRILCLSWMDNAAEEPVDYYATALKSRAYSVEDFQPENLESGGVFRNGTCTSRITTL
T2 sequence (Q9NPC1 whole entry): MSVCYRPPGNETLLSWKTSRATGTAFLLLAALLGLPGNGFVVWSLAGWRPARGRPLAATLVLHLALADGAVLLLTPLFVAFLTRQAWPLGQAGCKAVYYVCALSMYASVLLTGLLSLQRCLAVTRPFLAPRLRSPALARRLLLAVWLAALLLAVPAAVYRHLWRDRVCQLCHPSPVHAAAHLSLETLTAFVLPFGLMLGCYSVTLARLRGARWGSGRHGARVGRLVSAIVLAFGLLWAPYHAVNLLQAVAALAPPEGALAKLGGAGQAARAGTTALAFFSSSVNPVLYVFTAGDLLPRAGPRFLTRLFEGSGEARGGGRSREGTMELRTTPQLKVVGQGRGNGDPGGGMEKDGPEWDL
Chain of 318 nonolfactory human GPCRs (Homo sapiens, UniProt P25021) (P25021 whole entry): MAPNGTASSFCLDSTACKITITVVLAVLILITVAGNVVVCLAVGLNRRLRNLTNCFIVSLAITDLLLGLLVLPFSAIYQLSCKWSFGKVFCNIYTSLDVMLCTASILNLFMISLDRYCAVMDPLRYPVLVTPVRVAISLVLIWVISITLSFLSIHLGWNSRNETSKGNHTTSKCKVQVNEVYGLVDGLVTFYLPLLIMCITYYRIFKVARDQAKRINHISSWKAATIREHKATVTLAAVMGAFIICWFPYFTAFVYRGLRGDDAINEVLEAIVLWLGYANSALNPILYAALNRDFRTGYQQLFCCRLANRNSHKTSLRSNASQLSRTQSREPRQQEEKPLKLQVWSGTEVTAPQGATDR
Chain of 318 nonolfactory human GPCRs (Homo sapiens, UniProt P31391) (P31391 whole entry): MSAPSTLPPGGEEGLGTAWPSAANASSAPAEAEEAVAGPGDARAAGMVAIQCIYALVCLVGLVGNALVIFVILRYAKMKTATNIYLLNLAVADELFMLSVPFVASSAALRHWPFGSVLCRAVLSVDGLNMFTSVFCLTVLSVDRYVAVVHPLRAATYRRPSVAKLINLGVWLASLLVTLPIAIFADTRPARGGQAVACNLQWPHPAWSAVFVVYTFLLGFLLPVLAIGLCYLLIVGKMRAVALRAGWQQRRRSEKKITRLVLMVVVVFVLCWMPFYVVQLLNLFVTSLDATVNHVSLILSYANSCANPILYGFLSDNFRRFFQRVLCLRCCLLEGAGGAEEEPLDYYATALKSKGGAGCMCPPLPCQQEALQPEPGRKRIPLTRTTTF
Chain of 318 nonolfactory human GPCRs (Homo sapiens, UniProt P21728) (P21728 whole entry): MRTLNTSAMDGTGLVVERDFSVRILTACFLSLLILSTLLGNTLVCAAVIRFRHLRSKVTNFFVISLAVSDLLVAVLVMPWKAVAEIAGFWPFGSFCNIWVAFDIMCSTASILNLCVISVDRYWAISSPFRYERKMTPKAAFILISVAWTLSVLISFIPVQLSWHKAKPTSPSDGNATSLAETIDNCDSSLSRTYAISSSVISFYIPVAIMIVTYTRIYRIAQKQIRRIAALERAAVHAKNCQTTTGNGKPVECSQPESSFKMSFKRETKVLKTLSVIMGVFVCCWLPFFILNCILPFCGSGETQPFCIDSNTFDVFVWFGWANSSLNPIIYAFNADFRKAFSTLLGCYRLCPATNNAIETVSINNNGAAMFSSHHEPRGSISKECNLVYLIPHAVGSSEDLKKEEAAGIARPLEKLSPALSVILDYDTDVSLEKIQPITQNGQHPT
T11 sequence (P30968 whole entry): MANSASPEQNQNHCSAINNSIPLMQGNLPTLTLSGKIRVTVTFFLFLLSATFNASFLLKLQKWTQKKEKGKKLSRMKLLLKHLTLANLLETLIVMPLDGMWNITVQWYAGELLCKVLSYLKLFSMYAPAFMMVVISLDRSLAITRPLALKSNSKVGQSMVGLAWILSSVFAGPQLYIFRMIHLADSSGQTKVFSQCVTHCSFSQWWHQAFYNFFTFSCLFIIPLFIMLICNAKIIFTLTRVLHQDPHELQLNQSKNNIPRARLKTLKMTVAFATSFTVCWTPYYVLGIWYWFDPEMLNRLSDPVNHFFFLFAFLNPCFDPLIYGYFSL
T5 sequence (P51684 whole entry): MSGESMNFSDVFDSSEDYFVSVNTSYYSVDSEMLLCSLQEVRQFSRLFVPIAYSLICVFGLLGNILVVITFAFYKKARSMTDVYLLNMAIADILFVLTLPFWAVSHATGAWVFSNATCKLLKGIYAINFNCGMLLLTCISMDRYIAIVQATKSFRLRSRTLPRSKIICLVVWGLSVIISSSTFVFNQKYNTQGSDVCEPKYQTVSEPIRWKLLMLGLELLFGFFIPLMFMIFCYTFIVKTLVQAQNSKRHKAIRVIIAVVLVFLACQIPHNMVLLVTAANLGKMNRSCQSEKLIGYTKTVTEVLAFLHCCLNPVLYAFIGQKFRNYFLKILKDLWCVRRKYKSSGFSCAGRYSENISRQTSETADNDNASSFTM
T20 sequence (Q8TDT2 whole entry): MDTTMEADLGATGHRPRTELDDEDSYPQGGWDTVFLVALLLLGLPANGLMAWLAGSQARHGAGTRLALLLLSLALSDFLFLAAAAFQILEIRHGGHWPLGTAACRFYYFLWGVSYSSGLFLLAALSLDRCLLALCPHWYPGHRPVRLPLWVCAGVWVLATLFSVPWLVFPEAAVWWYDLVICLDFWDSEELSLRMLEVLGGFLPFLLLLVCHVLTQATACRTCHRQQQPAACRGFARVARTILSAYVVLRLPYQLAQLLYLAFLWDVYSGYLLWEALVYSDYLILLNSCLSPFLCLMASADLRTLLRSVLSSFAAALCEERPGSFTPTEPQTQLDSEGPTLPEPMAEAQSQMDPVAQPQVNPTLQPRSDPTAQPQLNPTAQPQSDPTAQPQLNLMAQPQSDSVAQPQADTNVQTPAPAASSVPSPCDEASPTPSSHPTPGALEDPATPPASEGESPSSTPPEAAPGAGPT
T15 sequence (P25089 whole entry): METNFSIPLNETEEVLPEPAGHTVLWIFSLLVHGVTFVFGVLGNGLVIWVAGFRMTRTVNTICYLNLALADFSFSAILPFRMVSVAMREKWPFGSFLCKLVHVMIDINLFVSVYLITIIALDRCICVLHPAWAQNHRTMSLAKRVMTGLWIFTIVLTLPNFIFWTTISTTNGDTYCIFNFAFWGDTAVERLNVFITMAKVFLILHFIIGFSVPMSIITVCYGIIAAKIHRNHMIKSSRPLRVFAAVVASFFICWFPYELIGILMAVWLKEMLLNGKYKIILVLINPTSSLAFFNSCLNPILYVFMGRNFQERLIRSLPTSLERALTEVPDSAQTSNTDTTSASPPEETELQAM
T10 sequence (Q9BXC1 whole entry): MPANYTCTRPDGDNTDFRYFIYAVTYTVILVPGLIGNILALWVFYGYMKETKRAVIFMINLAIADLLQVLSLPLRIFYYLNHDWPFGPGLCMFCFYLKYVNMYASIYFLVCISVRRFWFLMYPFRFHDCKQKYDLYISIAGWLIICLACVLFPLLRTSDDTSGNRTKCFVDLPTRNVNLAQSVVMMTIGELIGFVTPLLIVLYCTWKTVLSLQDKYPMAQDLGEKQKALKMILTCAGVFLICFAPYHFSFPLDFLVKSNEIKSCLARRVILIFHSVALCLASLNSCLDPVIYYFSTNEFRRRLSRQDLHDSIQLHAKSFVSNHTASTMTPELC

Compound: c1ccc2c(c1)N=C(N1CCNCC1)c1ccccc1N2 [C21, 11-(1-piperazinyl)-5H-dibenzo[b,e][1,4]diazepine]
- FOLD OVER BASAL [1]: 0.9 fold and 1 fold and 1.1 fold and 0.7 fold
- FOLD OVER BASAL [2]: 1 fold and 0.9 fold and 1.1 fold and 1.2 fold
- FOLD OVER BASAL [3]: 0.6 fold and 0.7 fold
- FOLD OVER BASAL [4]: 0.6 fold and 1.1 fold and 0.8 fold
- FOLD OVER BASAL [5]: 1.1 fold and 1.2 fold and 1.7 fold
- FOLD OVER BASAL [6]: 1.7 fold and 1.4 fold and 1.6 fold and 1.3 fold
- FOLD OVER BASAL [7]: 1.5 fold and 0.8 fold and 1 fold and 0.9 fold
- FOLD OVER BASAL [8]: 1.2 fold and 0.8 fold
- FOLD OVER BASAL [9]: 0.8 fold and 0.9 fold and 1 fold
- FOLD OVER BASAL [10]: 0.6 fold and 0.5 fold and 0.8 fold
- FOLD OVER BASAL [11]: 0.6 fold and 0.9 fold and 0.5 fold
- FOLD OVER BASAL [12]: 0.6 fold and 1.2 fold and 0.9 fold and 0.7 fold
- FOLD OVER BASAL [13]: 0.5 fold and 0.8 fold and 1 fold and 0.9 fold
- FOLD OVER BASAL [14]: 0.8 fold and 0.9 fold and 0.6 fold
- FOLD OVER BASAL [15]: 1 fold and 0.9 fold and 1.1 fold
- FOLD OVER BASAL [16]: 0.8 fold and 0.5 fold and 0.9 fold
- FOLD OVER BASAL [17]: 0.9 fold and 0.8 fold and 0.5 fold and 0.6 fold
- FOLD OVER BASAL [18]: 1.2 fold and 0.9 fold and 1.1 fold and 1 fold
- FOLD OVER BASAL [19]: 0.8 fold and 1.3 fold and 1.5 fold and 1.1 fold
- FOLD OVER BASAL [20]: 1.7 fold and 1.4 fold and 1.2 fold and 1.1 fold
- FOLD OVER BASAL [21]: 0.9 fold and 1.1 fold
- FOLD OVER BASAL [22]: 0.8 fold and 0.5 fold
- FOLD OVER BASAL [23]: 1 fold and 0.9 fold
- FOLD OVER BASAL [24]: 0.5 fold and 0.7 fold and 0.6 fold
- FOLD OVER BASAL [25]: 1.3 fold and 1 fold and 0.7 fold and 1.1 fold
- FOLD OVER BASAL [26]: 1 fold and 0.6 fold and 0.8 fold
- FOLD OVER BASAL [27]: 0.6 fold and 0.7 fold
- FOLD OVER BASAL [28]: 1.1 fold and 0.9 fold and 1.2 fold
- FOLD OVER BASAL [29]: 1.4 fold and 1.2 fold and 1.3 fold and 1 fold
- FOLD OVER BASAL [30]: 1.1 fold and 1.2 fold
- FOLD OVER BASAL [31]: 1.3 fold and 1 fold and 0.9 fold
- FOLD OVER BASAL [32]: 0.7 fold and 0.9 fold and 1.1 fold
- FOLD OVER BASAL [33]: 0.9 fold and 0.8 fold and 1 fold
- FOLD OVER BASAL [34]: 0.9 fold and 0.6 fold and 0.8 fold
